Patent publication US20250082653A1, “THERAPEUTIC PRODUCT IN THE FORM OF A DENTAL GEL” (CB21 PHARMA, S.R.O., priority 2021, published 2025)
≈ marks a conversion by molar mass, not a printed value.

Tests used:
gingival fibroblasts = assay: Permeation of CBD into gingival fibroblasts (UHPLC/MS); assay type: in vitro ADME, human; settings: 0.5 μM CBD
Method: Gingival fibroblasts (obtained from three healthy patients) were seeded in a 6-well plate (well area 9.6 cm^2) and allowed to grow until the next day (confluence). CBD was applied to the cells at a concentration of 0.5 μM for 6 and 24 hours. At the end of the incubation period, 250 μl of medium was mixed with 250 μl of methanol with 1% (w/w) HCl and the cells were washed 2× with PBS (1 ml), scraped from 4 wells into PBS (phosphate buffer, 1 ml), centrifuged for 5 minutes at 3000 rpm. After centrifugation, PBS was removed and 0.5 ml of methanol with 1% (w/w) HCl was added and the cells were sonicated (cycle 0.5, amplitude 50, 10 times). The samples were then centrifuged for 2 minutes at 8000 rpm and the supernatant was pipetted into a clean tube and subjected to UHPLC/MS analysis.
UHPLC/MS analyses were performed on an ACQUITY I Class liquid chromatograph (Waters, Milford, MA, USA). It is a modular system consisting of a chromatographic pump (Binary Solvent Manager), autosampler (Sample Manager) and column thermostat (Column Manager). Kinetex Polar C18 (100×2.1 mm i.d., 2.6 μm; Phenomenex, CA, USA) was used as the analytical column. The system was operated with a gradient elution of the mobile phase (MFA 0.1% formic acid in water, MFB 0.1% formic acid in acetonitrile) at a flow rate of 0.6 ml/min and a temperature of 25° C. The gradient elution had the following parameters: 0 to 11 min 50 to 70% MFB, 11 to 12.5 min 70 to 100% MFB, 12.5 to 13 min 100 to 50% MFB, 13 to 16 min 50% MFB. The injection volume was 2 μl.
A high resolution Synapt G2-S mass spectrometer (Waters Corp., Manchester, UK) connected to the UPLC system via an electrospray ionization (ESI) interface was used for the metabolic study. The ion source was operated in positive ionization mode with a capillary voltage of 3.0 kV and a sample cone of 30 V. The source temperature and desolvation gas temperature were set at 120° C. and 320° C. The desolvation gas flow rate was 900 l/h. […]

[1] = tested on: human gingival fibroblasts (HGF); assay: MTT cytotoxicity test in human gingival fibroblasts; assay type: cell-based; settings: CBD 0.25 and 0.5 μmol/l; 24 h incubation
Method: In an in vitro study of the effect of cannabidiol (CBD), human gingival fibroblasts (HGF) isolated from gingiva taken from volunteers at the Department of Oral, Maxillofacial and Facial Surgery of the University Hospital and Medical Faculty of Palacký University Olomouc approved by the Ethics Committee of the University Hospital and Medical Faculty of Palacký University Olomouc (2019) were used. In the first phase of the experiment, a safe CBD concentration was determined based on the results of MTT, which is cytotoxicity test based on the reduction of 3-(4,5-dimethylthiazol-2-yl)-2,5-diphenyltetrazolium bromide (MTT) to the corresponding formazane. The test was performed according to M. D. Maines, L. G. Costa, D. J. Reed, et al. Current protocols in toxicology. New York: John Wiley & Sons. (1998).
Cells seeded in a 96-well plate at a count of 3×10^4 cells/ml and 100 μl/well, which were […], 100 μl MTT was added (0.5 mg/ml in serum-free culture medium), the mixture was incubated for 2 h. After the incubation period and aspiration of the MTT mixture, 100 μl DMSO (dimethyl sulfoxide) with NH3 (1%, v/v) was added. Absorbance was measured at 540 nm.

IL-8 = IL-8 production (ELISA) in HGF after P. gingivalis LPS inflammation induction; assay type: cell-based, human; settings: CBD 0.25 and 0.5 μmol/l, 6 and 24 h
Method: (§1) According to the values obtained from the MTT test, two subtoxic concentrations of CBD (0.25 and 0.5 μmol/l) were selected and used to determine its anti-inflammatory effect. Inflammation to HGF was induced by P. gingivalis lipopolysaccharide (LPS) according to How K. Y., Song K. P., Chan K. G., Porphyromonas gingivalis: An Overview of Periodontopathic Pathogen below the Gum Line. Front Microbiol 2016; 7:53. HGFs were seeded in 6-well plates and allowed to grow to confluence. The cells were washed with 1 ml of PBS, and then LPS (1 μg/ml, 2 ml/well) in serum-free culture medium was added, and incubated for 24 hours. A portion of the cells was left without the application of LPS (i.e., without induced inflammation). At the end of the incubation period, CBD in serum-free culture medium at concentrations of 0.25 and 0.5 μmol/l was added (2 ml/well) for 6 and 24 hours, both for cells cultured with LPS and for cells without LPS application. At selected time intervals, the culture medium was collected and stored at −80° C. for further analysis. The levels of proinflammatory interleukins IL-6, IL-8 (Human ELISA Development Kit, Cat. No. 900-K16 and 900-K18, PeproTech, Baria, Czech Republic) and matrix metalloproteinase (MMP-2) (Duo Set ELISA Development System, Cat. No. DY902, R&D, Bio-Techne, UK) were determined by ELISA. […]

[2] = tested on: Streptococcus mutans CCM 7409; assay: MIC by microdilution method (CLSI M11), anaerobic; assay type: cell-based; settings: S. mutans, 24 h anaerobic incubation, three independent experiments
Method: (§2) Strains Streptococcus mutans CCM 7409 and Porphyromonas gingivalis CCM 3985 were selected for testing. Both were obtained from Czech Collection of Microorganisms (Brno). BHI+kh medium (Brain-heart infusion (Oxoid, UK) enriched with vitamin K (0.001 mg/ml) and hemin ([…])) was used to cultivate S. mutans, and for P. gingivalis medium WCHA—Wilkins-Chalgren agar (HiMedia, India), with 7% sheep erythrocytes and vitamin K (0.001 mg/ml). (Blaskovich M A T, Kavanagh A M, Elliott A G, Zhang B, Ramu S, Amado M et al. The antimicrobial potential of cannabidiol. Commun Biol 2021; 4(1):1-18).
(§3) The susceptibility of selected microbes to tested substance was verified by the microdilution method according to Clinical and Laboratory Standards Institute (M Methods for Antimicrobial Susceptibility Testing of Anaerobic Bacteria. 9th ed. CLSI standard M11. Wayne, PA: Clinical and Laboratory Standards Institute; 2018).
(§4) Basic working solutions were prepared from the tested substance by dilution in DMSO. […] The required concentrations of the tested substance were then prepared by serial dilution, dilution factor 1:2. 135 μl of each dilution was pipetted into the wells of a 96-well round-bottomed hardened polystyrene microtiter plate (Gamma České Budějovice, a.s.).
(§5) From fresh cultures of the test strains on Wilkins-Chalgren agar (WCHA; HiMedia, India), with 7% sheep erythrocytes and vitamin K, suspensions were prepared in BHI+kh at an optical density corresponding to 0.5 degrees McFarland turbidity scale (after subtraction of optical density of the medium). The suspensions were then diluted in the ratio 1:15 (final inoculum concentration 5×10^6 CFU/ml). Individual wells with 135 μl of the CBD solutions and control wells were inoculated with 15 μl of the prepared inoculum.
(§6) The inoculated microtiter plates were incubated in an Anaerobic Work Station (Ruskinn Technology, UK) with an anaerobic atmosphere (80% N2, 10% CO2 and 10% H2) at 37° C. The incubation was performed for 60 hours for P. gingivalis and 24 hours for S. mutans.
(§7) The sterility of the medium was checked by transferring 150 μl BHI+kh to three wells of a microtiter plate. […]
(§8) After evaluating the MIC, the contents of the wells with the highest concentration of CBD and with visible microbial growth were inoculated onto WCHA. […] After 48 hours (S. mutans) or 14 days (P. gingivalis) of incubation in an anaerobic atmosphere, the purity of the grown microbial culture was evaluated. […]
(§9) The growth of the microbe, which manifested itself by turbidity of the medium or as a sediment at the bottom of the well of the microtiter plate, was monitored in the individual wells of the microtiter plate. […] The minimum inhibitory concentration (MIC) was determined as the lowest concentration of the substance at which no microbial growth was observed. […]

[3] = tested on: Porphyromonas gingivalis CCM 3985; assay: MIC by microdilution method (CLSI M11), anaerobic; assay type: cell-based; settings: P. gingivalis, 60 h anaerobic incubation, three independent experiments
Method: as §2, §3, §4, §5, §6, §7, §8, §9

IL-6 = IL-6 production (ELISA) in HGF after P. gingivalis LPS inflammation induction; assay type: cell-based, human; settings: CBD 0.25 and 0.5 μmol/l, 6 and 24 h
Method: as §1

[4] = tested on: matrix metalloproteinase (MMP-2); assay: MMP-2 production (ELISA) in HGF after P. gingivalis LPS inflammation induction; assay type: cell-based, human; settings: CBD 0.25 and 0.5 μmol/l, 6 and 24 h
Method: as §1

C=C(C)[C@@H]1CCC(C)=C[C@H]1c1c(O)cc(CCCCC)cc1O [CBD, cannabidiol]
absorption of CBD by gingival fibroblasts (gingival fibroblasts; 6 and 24 h, cell lysates): absorbed relatively quickly | CBD in the culture medium (gingival fibroblasts; 6 and 24 h incubation, UHPLC/MS): not detected | metabolites of CBD (gingival fibroblasts; after 24 h of cultivation): no metabolites of CBD were identified | Cytotoxicity by MTT test [1]: subtoxic | levels of IL-8 (IL-8): decrease | MIC range [2]: 16 µg/mL (≈ 50.9 µM) | MIC ([2]; Streptococcus mutans, CCM7409, read-out: MIC median): 16 µg/mL (≈ 50.9 µM) | MIC range [3]: 1 to 2 µg/mL | MIC ([3]; Porphyromonas gingivalis, CCM3985, read-out: MIC median): 1.5 µg/mL (≈ 4.77 µM) | levels of IL-6 (IL-6): decrease | MMP-2 levels [4]: no significant changes
